#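 These data come from cells grown in 96-well plates and exposed to compound for 48 hours at five concentrations. GI50 = concentration required for 50% inhibition of growth.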 Activity calls are given as the source filed them. No stated cut-off is given here; in the data, active = GI50 up to about 1.1 µM and inactive = higher.
# Columns and labels:
# Assay in all cases: NCI anticancer screen, dose series, 48 h
# 786-0 = tested on: 786-0
# A498 = tested on: A498
# A549 = tested on: A549
# ACHN = tested on: ACHN
# BT-549 = tested on: BT-549
# CAKI-1 = tested on: CAKI-1
# CCRF-CEM = tested on: CCRF-CEM
# COLO 205 = tested on: COLO 205
# DU-145 = tested on: DU-145
# EKVX = tested on: EKVX
# HCC 2998 = tested on: HCC 2998
# HCT-116 = tested on: HCT-116
# HCT-15 = tested on: HCT-15
# HL-60 = tested on: HL-60
# HOP-62 = tested on: HOP-62
# HOP-92 = tested on: HOP-92
# HT-29 = tested on: HT-29
# Hs-578T = tested on: Hs-578T
# IGROV-1 = tested on: IGROV-1
# K562 = tested on: K562
# KM12 = tested on: KM12
# LOX IMVI = tested on: LOX IMVI
# M14 = tested on: M14
# MCF7 = tested on: MCF7
# MDA-MB-231 = tested on: MDA-MB-231
# MDA-MB-435 = tested on: MDA-MB-435
# MDA-N = tested on: MDA-N
# MOLT-4 = tested on: MOLT-4
# Malme-3M = tested on: Malme-3M
# NCI-H226 = tested on: NCI-H226
# NCI-H23 = tested on: NCI-H23
# NCI-H460 = tested on: NCI-H460
# NCI-H522 = tested on: NCI-H522
# NCI/ADR-RES = tested on: NCI/ADR-RES
# OVCAR-3 = tested on: OVCAR-3
# OVCAR-4 = tested on: OVCAR-4
# OVCAR-5 = tested on: OVCAR-5
# OVCAR-8 = tested on: OVCAR-8
# PC-3 = tested on: PC-3
# RPMI-8226 = tested on: RPMI-8226
# RXF 393 = tested on: RXF 393
# SF-268 = tested on: SF-268
# SF-295 = tested on: SF-295
# SF-539 = tested on: SF-539
# SK-MEL-28 = tested on: SK-MEL-28
# SK-MEL-2 = tested on: SK-MEL-2
# SK-MEL-5 = tested on: SK-MEL-5
# SK-OV-3 = tested on: SK-OV-3
# SN12C = tested on: SN12C
# SNB-19 = tested on: SNB-19
# SNB-75 = tested on: SNB-75
# SR = tested on: SR
# SW-620 = tested on: SW-620
# TK-10 = tested on: TK-10
# U-251 = tested on: U-251
# UACC-257 = tested on: UACC-257
# UACC-62 = tested on: UACC-62
# T47D = tested on: T47D
# UO-31 = tested on: UO-31
structure (smiles),measurement,setting,value
COc1cc(C)cc2c1c(=O)c1ccccc1n2C,GI50,786-0,38.5 µM (inactive)
same,GI50,A498,43.3 µM (inactive)
same,GI50,A549,40.4 µM (inactive)
same,GI50,ACHN,36 µM (inactive)
same,GI50,BT-549,37.9 µM (inactive)
same,GI50,CAKI-1,54.8 µM (inactive)
same,GI50,CCRF-CEM,24.4 µM (inactive)
same,GI50,COLO 205,27.2 µM (inactive)
same,GI50,DU-145,49.3 µM (inactive)
same,GI50,EKVX,55.3 µM (inactive)
same,GI50,HCC 2998,45.7 µM (inactive)
same,GI50,HCT-116,30 µM (inactive)
same,GI50,HCT-15,36.4 µM
same,GI50,HL-60,33.7 µM (inactive)
same,GI50,HOP-62,41.4 µM (inactive)
same,GI50,HOP-92,31.4 µM (inactive)
same,GI50,HT-29,28.7 µM (inactive)
same,GI50,Hs-578T,48.3 µM (inactive)
same,GI50,IGROV-1,42.1 µM (inactive)
same,GI50,K562,18.2 µM (inactive)
same,GI50,KM12,34.4 µM (inactive)
same,GI50,LOX IMVI,16.8 µM (inactive)
same,GI50,M14,34.7 µM (inactive)
same,GI50,MCF7,16.4 µM (inactive)
same,GI50,MDA-MB-231,53.5 µM (inactive)
same,GI50,MDA-MB-435,35.4 µM (inactive)
same,GI50,MDA-N,19 µM (inactive)
same,GI50,MOLT-4,31.3 µM (inactive)
same,GI50,Malme-3M,39.7 µM (inactive)
same,GI50,NCI-H226,33.5 µM (inactive)
same,GI50,NCI-H23,40.8 µM (inactive)
same,GI50,NCI-H460,32.7 µM (inactive)
same,GI50,NCI-H522,34 µM (inactive)
same,GI50,NCI/ADR-RES,33.8 µM (inactive)
same,GI50,OVCAR-3,37.6 µM (inactive)
same,GI50,OVCAR-4,35.3 µM (inactive)
same,GI50,OVCAR-5,34.8 µM (inactive)
same,GI50,OVCAR-8,40.1 µM (inactive)
same,GI50,PC-3,29.2 µM (inactive)
same,GI50,RPMI-8226,19.7 µM (inactive)
same,GI50,RXF 393,28.3 µM (inactive)
same,GI50,SF-268,49.7 µM (inactive)
same,GI50,SF-295,20.8 µM (inactive)
same,GI50,SF-539,20.2 µM (inactive)
same,GI50,SK-MEL-28,42.6 µM (inactive)
same,GI50,SK-MEL-2,15.9 µM (inactive)
same,GI50,SK-MEL-5,25 µM (inactive)
same,GI50,SK-OV-3,60 µM (inactive)
same,GI50,SN12C,37.5 µM (inactive)
same,GI50,SNB-19,54.8 µM (inactive)
same,GI50,SNB-75,41.7 µM (inactive)
same,GI50,SR,22.1 µM (inactive)
same,GI50,SW-620,46.2 µM (inactive)
same,GI50,TK-10,56.4 µM (inactive)
same,GI50,U-251,33.9 µM (inactive)
same,GI50,UACC-257,40.2 µM (inactive)
same,GI50,UACC-62,33.7 µM (inactive)
COc1ccc(NC(=O)CSC(=O)c2ccccc2)c(SCCSSCCSc2cc(OC)ccc2NC(=O)CSC(=O)c2ccccc2)c1,GI50,786-0,> 100 µM (inactive)
same,GI50,A498,> 100 µM (inactive)
same,GI50,A549,> 100 µM (inactive)
same,GI50,ACHN,> 100 µM (inactive)
same,GI50,BT-549,> 100 µM (inactive)
same,GI50,CAKI-1,18.2 µM (inactive)
same,GI50,CCRF-CEM,79.6 µM (inactive)
same,GI50,COLO 205,11 µM (inactive)
same,GI50,DU-145,> 100 µM (inactive)
same,GI50,EKVX,72.9 µM (inactive)
same,GI50,HCT-116,48.8 µM (inactive)
same,GI50,HCT-15,> 100 µM
same,GI50,HL-60,4.22 µM (inactive)
same,GI50,HOP-62,> 100 µM (inactive)
same,GI50,HOP-92,84.9 µM (inactive)
same,GI50,HT-29,> 100 µM (inactive)
same,GI50,Hs-578T,> 100 µM (inactive)
same,GI50,IGROV-1,67.5 µM (inactive)
same,GI50,KM12,8.07 µM (inactive)
same,GI50,LOX IMVI,20.7 µM (inactive)
same,GI50,M14,15.7 µM (inactive)
same,GI50,MCF7,66.5 µM (inactive)
same,GI50,MDA-MB-435,> 100 µM (inactive)
same,GI50,MDA-N,> 100 µM (inactive)
same,GI50,MOLT-4,3.5 µM (inactive)
same,GI50,Malme-3M,69.3 µM (inactive)
same,GI50,NCI-H226,> 100 µM (inactive)
same,GI50,NCI-H23,73.3 µM (inactive)
same,GI50,NCI-H460,4.62 µM (inactive)
same,GI50,NCI-H522,> 100 µM (inactive)
same,GI50,NCI/ADR-RES,> 100 µM (inactive)
same,GI50,OVCAR-3,9.57 µM (inactive)
same,GI50,OVCAR-4,6.44 µM (inactive)
same,GI50,OVCAR-5,> 100 µM (inactive)
same,GI50,OVCAR-8,> 100 µM (inactive)
same,GI50,PC-3,> 100 µM (inactive)
same,GI50,RPMI-8226,> 100 µM (inactive)
same,GI50,RXF 393,> 100 µM (inactive)
same,GI50,SF-268,67.5 µM (inactive)
same,GI50,SF-295,> 100 µM (inactive)
same,GI50,SF-539,> 100 µM (inactive)
same,GI50,SK-MEL-2,27.9 µM (inactive)
same,GI50,SK-MEL-5,> 100 µM (inactive)
same,GI50,SK-OV-3,41.5 µM (inactive)
same,GI50,SN12C,> 100 µM (inactive)
same,GI50,SNB-19,> 100 µM (inactive)
same,GI50,SNB-75,> 100 µM (inactive)
same,GI50,SR,3.75 µM (inactive)
same,GI50,SW-620,> 100 µM (inactive)
same,GI50,T47D,28.7 µM (inactive)
same,GI50,TK-10,> 100 µM (inactive)
same,GI50,U-251,> 100 µM (inactive)
same,GI50,UACC-257,> 100 µM (inactive)
same,GI50,UACC-62,> 100 µM (inactive)
same,GI50,UO-31,73.6 µM (inactive)
[N-]=[N+]=NC1=C(C(=O)c2ccccc2)C(=O)c2cccc3cccc1c23,GI50,786-0,25.3 µM (inactive)
same,GI50,A549,45.2 µM (inactive)
same,GI50,ACHN,37.7 µM (inactive)
same,GI50,BT-549,44.8 µM (inactive)
same,GI50,CAKI-1,40.6 µM (inactive)
same,GI50,CCRF-CEM,21.4 µM (inactive)
same,GI50,COLO 205,> 100 µM (inactive)
same,GI50,EKVX,19.1 µM (inactive)
same,GI50,HCT-116,72.1 µM (inactive)
same,GI50,HOP-62,17.1 µM (inactive)
same,GI50,HOP-92,28.4 µM (inactive)
same,GI50,HT-29,51.2 µM (inactive)
same,GI50,Hs-578T,20.7 µM (inactive)
same,GI50,IGROV-1,10.1 µM (inactive)
same,GI50,K562,54.5 µM (inactive)
same,GI50,KM12,25.1 µM (inactive)
same,GI50,M14,49.9 µM (inactive)
same,GI50,MCF7,6.79 µM (inactive)
same,GI50,MDA-MB-231,23.4 µM (inactive)
same,GI50,MDA-MB-435,51.5 µM (inactive)
same,GI50,MDA-N,64.3 µM (inactive)
same,GI50,MOLT-4,23 µM (inactive)
same,GI50,Malme-3M,46.7 µM (inactive)
same,GI50,NCI-H226,36.4 µM (inactive)
same,GI50,NCI-H23,51.3 µM (inactive)
same,GI50,NCI-H522,23 µM (inactive)
same,GI50,NCI/ADR-RES,67.3 µM (inactive)
same,GI50,OVCAR-3,30.5 µM (inactive)
same,GI50,OVCAR-4,39.5 µM (inactive)
same,GI50,OVCAR-5,> 100 µM (inactive)
same,GI50,OVCAR-8,37 µM (inactive)
same,GI50,PC-3,49.2 µM (inactive)
same,GI50,RPMI-8226,37.2 µM (inactive)
same,GI50,RXF 393,22.4 µM (inactive)
same,GI50,SF-268,17.1 µM (inactive)
same,GI50,SF-295,42.3 µM (inactive)
same,GI50,SF-539,49.3 µM (inactive)
same,GI50,SK-MEL-28,66.7 µM (inactive)
same,GI50,SK-MEL-2,21.8 µM (inactive)
same,GI50,SK-MEL-5,44.2 µM (inactive)
same,GI50,SK-OV-3,26.6 µM (inactive)
same,GI50,SN12C,63 µM (inactive)
same,GI50,SNB-19,28.1 µM (inactive)
same,GI50,SNB-75,15.8 µM (inactive)
same,GI50,SR,10.6 µM (inactive)
same,GI50,SW-620,> 100 µM (inactive)
same,GI50,T47D,78.3 µM (inactive)
same,GI50,TK-10,21.9 µM (inactive)
same,GI50,U-251,21.2 µM (inactive)
same,GI50,UACC-257,48.8 µM (inactive)
same,GI50,UACC-62,31.3 µM (inactive)
same,GI50,UO-31,26.2 µM (inactive)
